From patent US20260115314A1, “PREVENTION AND/OR TREATMENT OF CARDIAC DAMAGE” (priority 2022, published 2026)
Where no end group is shown, it is not given here.

How the values were obtained:
[1] = tested on: inducible nitric oxide synthase (iNOS); assay: Immunoblot of iNOS in LPS-stimulated RAW 264.7 macrophages; format: cell-based; details: NIL10 plus STATTIC
Experimental: (§1) A. Confocal microscopy detection of NF-κB (p65) in RAW 264.7 cells stimulated with 500 μM LPS or in combination with NIL10. Nuclei were stained with DAPI. […] (N=3, results expressed as Mean±SD. *P<0.05 LPS/NIL10 vs LPS/NIL10SC). […] Confocal microscopy detection as in A, in which STATTIC, a pharmacological inhibitor of STAT3 was incubated. Arrows point nuclear or cytoplasmic localization of p65. Lower panels: immunoblot detection of iNOS in cells as in C. (N=3, results expressed as Mean±SD. *P<0.03 LPS vs LPS/NIL10 **P<0.05 LPS/STATTIC vs LPS/NIL10SC/STATTIC. ***P<0.001 NIL10/STATIC vs LPS/NIL10/STATIC).
(§2) The expression of the readout inducible nitric oxide synthase (iNOS) by pro-inflammatory signals was also assayed.

[2] = tested on: NF-κB; assay: NF-κB (p65) nuclear translocation in LPS-stimulated RAW 264.7 macrophages, confocal microscopy; format: cell-based; details: RAW 264.7 cells, NIL10, co-incubated with 5 μM STATTIC
Experimental: as §1, §2

[3] = tested on: pigs subjected to IR; assay: Evans Blue/TTC staining of necrotic area in pig hearts after IR; format: in vivo; details: 1 mg/kg, after 7 days of IR, EvansBlue/TTC
Excerpt: FIG. 6. NIL10 induces cardiac protection in pigs subjected to IR. A. Evans blue/TTC staining (see methods for details) of pig heart sections (from apex to base) after 7 days of IR, showing healthy tissue (blue), the area at risk (red) and the necrotic areas (white). B. Measurement of necrotic areas of the hearts, represented as a percentage respect to the area at risk (Mean±SD. *P<0.001 NIL10 vs NIL10SC, at day 7 post IR). C. Left ventricle ejection fraction of hearts from pigs injected with NIL10 or NIL10SC after 7 days of IR (Mean±SD. *P<0.001 NIL10 vs NIL10SC). D. Hematoxylin and Eosin staining of healthy and necrotic heart sections from pigs injected with NIL10 or NIL10SC after 7 days of IR. E. Masson Trichrome staining of the same hearts as in D. (N=10 pigs/group).
20 male Yorkshire pigs (30±4 kg) were housed 1 week preceding the surgery to avoid unease or stress associated with the new environment. Prior to the surgical intervention, animals were anesthetized with intramuscular ketamine 10 mg/kg and midazolam 0.5 mg/kg.
Anesthesia was induced by inhaled sevoflurane and maintained with continuous infusion of propofol 2 mL/kg/h, fentanyl 50 μg/kg/h, and diazepam 10 μg/kg/h. […]

[4] = tested on: mice subjected to IR; assay: LVEF by echocardiography in wild type mice subjected to IR; format: in vivo; details: 1 mg/kg 24 hours after IR, value NIL10 is compared against, day not given
Excerpt: FIG. 3. NIL10 induces cardiac protection in mice subjected to IR. A. Outline of the proceedings performed. B. Representative electrocardiogram, showing ST-elevation after LAD occlusion. C. Left ventricle ejection fraction (LVEF) of wild type mouse hearts at the times indicated after IR and injected with NIL10 or NIL10SC as in A. N=10 mice/group. Results expressed as mean±SD. *P<0.03 NIL10 vs NIL10SC day 7. #P<0.05 NIL10 vs NIL10SC day 3. D. LVEF in IL-10 knockout mice. N=10 mice/group. Results expressed as mean±SD. *P<0.01 NIL10 vs NIL10SC day 7. #P<0.05 NIL10 vs NIL10SC day 3. E. LVEF in IL-10 receptor knockout mice. N=10 mice/group. Results expressed as mean±SD.
20 male twelve-week-old wild type, IL10 knock-out and IL10RA knock-out mice C57/BL6 were anesthetized by inhaled 3% sevoflurane and oxygen with a flow rate of 0.4 L/min until loss of righting reflex. Then, endotracheal intubation was perform using an intubation cannula in order to carry out artificial ventilation (tidal volume: 260 μL/stroke, ventilation rate: 130 strokes per minute). The fourth left intercostal space was opened and widened using chest mice retractors. Left ventricle was exposed and LAD was occluded for 30 min close by using a 6-0 silk suture and 1 mm tube. Reperfusion was performed by ligation release. After the procedure, the chest was closed, negative pressure restored, and the skin sutured. […]

[5] = tested on: mouse hearts subjected to IR; assay: Hematoxylin/Eosin and Masson trichrome staining of mouse heart sections after IR; format: in vivo, mice; details: by day 7 after IR
Excerpt: FIG. 4. Hematoxylin and Eosin staining of mouse hearts. Heart sections of mice subjected to IR and injected with NIL10 or NIL10SC and collected by days 3 (A) or 7 (B) after IR. N=10 mice/group. From left to right: 2×, 20×, 40×. *P<0.05 D3; **P<0.01D7.
FIG. 5. NIL10 reduce heart fibrosis in response to IR. A. Representative immunoblot of MMP9 from healthy (H) or necrotic (N) areas of mouse hearts after 7 days of IR and injected with NIL10 or NIL10SC. N=10 mice/group. Mean±SD. *P<0.001 NIL10 vs NIL10SC necrotic areas. B. Masson Trichrome staining of heart sections from mice injected with NIL10 or NIL10SC, after 3- or 7-days post IR (N=10 mice/group). *P<0.05 D3; **P<0.03 D7.
20 male twelve-week-old wild type, IL10 knock-out and IL10RA knock-out mice C57/BL6 were anesthetized by inhaled 3% sevoflurane and oxygen with a flow rate of 0.4 L/min until loss of righting reflex. Then, endotracheal intubation was perform using an intubation cannula in order to carry out artificial ventilation (tidal volume: 260 μL/stroke, ventilation rate: 130 strokes per minute). The fourth left intercostal space was opened and widened using chest mice retractors. Left ventricle was exposed and LAD was occluded for 30 min close by using a 6-0 silk suture and 1 mm tube. […]
Heart morphology was visualized by Hematoxylin/Eosin staining and collagen deposition was detected by Masson's trichrome staining in mice and pigs.

[6] = tested on: M2 CD68+/CD206+ macrophages; assay: Flow cytometry of M2 macrophage populations in mouse hearts after IR; format: in vivo, mice; details: cell extracts from necrotic areas of mouse hearts, 3 and 7 days of IR
Excerpt: FIG. 7. NIL10 induces M2 macrophage polarization in the hearts of mice subjected to IR. A. Flow cytometry analysis of macrophage populations in mouse hearts after 3 and 7 days of IR. The percentage of M2 CD68+/CD206+ population were selected from the necrotic and at-risk areas of the hearts. B. Gating strategy used to identify macrophage-cell subsets in the health and infarcted mouse heart. A sequential getting strategy was first used to identify M2 population expressing specific macrophage marker CD68, followed by the identification of the population with overlapping expression patterns (CD68/CD206) (N=10 mice/group). Differences between groups were compared using one-way ANOVA. **P<0.01. ***P<0.001. ****P<0.0001.
Whole mouse hearts were mashed in complete DMEM (10% FBS, penicillin/streptomycin) through a 100-μm cell strainer. ACK Lysing Buffer was added to the single-cell suspension and spun down at 350 g for 5 minutes. The ACK was washed out with 50 mL of washing buffer (1% FBS), and cells were incubated with 1:100 anti-EMMPRIN, anti-CD68 and anti-CD206 antibodies. All flow cytometry samples were assayed in a MACSQuant Analyzer Flow Cytometer and analyzed with the Graphpad Prism software package.

[7] = target: T1, IL-10R (Mus musculus, UniProt Q61727); assay: Confocal microscopy colocalization of nanoparticles with IL-10R in RAW 264.7 macrophages; format: binding; details: RAW 264.7 cells, rhodamine nanoparticle vs FITC anti-IL-10R
T1 construct: endogenous in cells; host or cells: RAW 264.7 macrophages
T1 sequence (Q61727 17-575): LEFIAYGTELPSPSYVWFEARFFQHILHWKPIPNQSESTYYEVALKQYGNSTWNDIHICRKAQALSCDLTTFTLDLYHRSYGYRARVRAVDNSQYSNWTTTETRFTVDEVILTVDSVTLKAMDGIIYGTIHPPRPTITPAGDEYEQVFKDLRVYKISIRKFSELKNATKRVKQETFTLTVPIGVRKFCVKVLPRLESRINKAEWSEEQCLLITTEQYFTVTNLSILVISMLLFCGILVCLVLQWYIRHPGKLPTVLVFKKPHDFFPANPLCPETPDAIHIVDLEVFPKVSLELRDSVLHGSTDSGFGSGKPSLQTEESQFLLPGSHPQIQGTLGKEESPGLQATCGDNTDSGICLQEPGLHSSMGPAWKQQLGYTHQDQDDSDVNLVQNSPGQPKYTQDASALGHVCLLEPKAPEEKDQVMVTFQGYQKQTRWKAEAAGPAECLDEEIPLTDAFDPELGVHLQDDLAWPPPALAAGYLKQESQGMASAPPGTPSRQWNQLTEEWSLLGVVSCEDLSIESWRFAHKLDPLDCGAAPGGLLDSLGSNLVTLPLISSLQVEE
Experimental: FIG. 1. NIL10 binds to IL-10R in RAW 264.7 cells. A. Nanoparticle composition of NIL10 and NIL10SC. B. Z-potential, longitudinal and transversal relaxivities of NIL10 and NIL10SC nanoparticles. C. Bright field and confocal microscopy sections of RAW 264.7 macrophages, detecting rhodamine (red) containing NIL10 nanoparticles. D,E Colocalization of NIL10 (D) (rhodamine, red) or NIL10SC (E) with IL-10R (FICT, green) in confocal microscopy sections of RAW 264.7 cells incubated with NIL10 and anti-IL-10R specific antibody. Merged panel show co-localization of both signals. Nuclei were stained with Hoechst. Right panel: colocalization analysis with Image J co-localization plugin software, in which white dots correspond to co-localization (N=3).
To study the specificity of nanoparticles, we first incubated NIL10 (FIG. 1A, B) in RAW 264.7 macrophages, detecting rhodamine-containing nanoparticles by confocal microscopy (FIG. 1C).

Row | Compound | NIL10 inhibition of iNOS expression in the presence of STATTIC [1] | NIL10-induced cytoplasmic localization of NF-κB [2] | necrotic area [3] | LVEF (comparator value) [4] | extension of fibrosis (Masson Trichrome) [5] | presence of M2-resolving macrophages [6] | Colocalization with the IL-10R [7]
1 | O=[N+]([O-])c1ccc2c(c1)S(=O)(=O)C=C2 [STATTIC] | reversed | prevented |  |  |  |  | 
2 | NIL10SC: nanoparticle conjugated with the same peptide in a scrambled orientation (CANYRMITKM); control, does not bind IL10R (also: conjugated to nanoparticle (site not given here)) |  |  | 55±7.34 percentage respect to the area | 41.5%±4.33 | fibrotic lesions were widespread | takes 7 days to detect a similar effect | no binding
